Data on eight compounds can be found in patent US20170107257A1, “CYCLIC APELIN ANALOGS” (LANTHIOPEP B.V., priority 2014, published 2017).

Numbered stars: 1 amine (or outer) side, 2 acyl side, 3 side chain; on linkers, the order of the positions; unused ones are H or OH. Bridge positions count the residues as written; N and C are the ends. Square brackets hold non-standard residues; d marks the D form. Peptide text beside a SMILES is read from it. ξ: configuration not given here. ξAbu(3ξ-yl) = CC(C(N[*:1])C(=O)[*:2])[*:3]; pGlu = O=C1CC[C@@H](C(=O)O)N1

Test system in one series: not listed separately
Description: Stability of apelin analogs in rat plasma. The format is in vitro ADME. To be noted: rat, plasma, pH 7.4. As for the experimental part: Stability of apelin analogs in rat plasma. […] Samples were quenched by acidifying to final concentration of 5% TFA. Samples were analyzed on HPLC. Peak heights were plotted as relative to the initial peak heights.
Regarding `CSCC[C@H](NC(=O)[C@@H]1CCCN1C(=O)[C@@H]1CSCC(NC(=O)[C@H](CC(C)C)NC(=O)[C@H](CCCNC(=N)N)NC(=O)[C@@H]2CCCN2C(=O)[C@H](CCCNC(=N)N)NC(=O)[C@@H]2CCC(=O)N2)C(=O)N[C@@H](C)C(=O)N[C@@H](Cc2c[nH]cn2)C(=O)N[C@@H](CCCCN)C(=O)N1)C(=O)N1CCC[C@H]1C(=O)N[C@@H](Cc1ccccc1)C(=O)O` (some centres unmarked) [pEApeI5cS I, pERPRLLanAHKLanPMPF], the half-life – broadly, how long it takes for the measured level to halve – at 0.1 mg/ml is 3 h.
For `CSCC[C@H](NC(=O)[C@@H]1CCCN1C(=O)CNC(=O)[C@@H]1CSC(C)C(NC(=O)[C@H](CC(C)C)NC(=O)[C@H](CCCNC(=N)N)NC(=O)[C@@H]2CCCN2C(=O)[C@H](CCCNC(=N)N)NC(=O)[C@@H]2CCC(=O)N2)C(=O)N[C@@H](Cc2c[nH]cn2)C(=O)N[C@@H](CCCCN)C(=O)N1)C(=O)N1CCC[C@H]1C(=O)N[C@@H](Cc1ccccc1)C(=O)O` (some centres unmarked) [pEApeM6, pERPRLmeLanHKmeLanGPMPF] ([pGlu]RPRL[ξAbu(3ξ-yl)]HKCGPMPF-OH; thioether 6-9), the half-life at 0.1 mg/ml was 8 h.
The same measure, in the same setting: the result for `CSCC[C@H](NC(=O)[C@@H]1CCCN1C(=O)[C@@H]1CSC(C)C(NC(=O)[C@H](CC(C)C)NC(=O)[C@H](CCCNC(=N)N)NC(=O)[C@@H]2CCCN2C(=O)[C@H](CCCNC(=N)N)NC(=O)[C@@H]2CCC(=O)N2)C(=O)N[C@@H](Cc2c[nH]cn2)C(=O)N[C@@H](CCCCN)C(=O)NCC(=O)N1)C(=O)N1CCC[C@H]1C(=O)N[C@@H](Cc1ccccc1)C(=O)O` (some centres unmarked) [pEApeM7, pERPRLmeLanHKGmeLanPMPF] ([pGlu]RPRL[ξAbu(3ξ-yl)]HKGCPMPF-OH; thioether 6-10) reads 15 h.
Same read-out and setting: as for `CSCC[C@H](NC(=O)[C@@H]1CSCC(NC(=O)[C@H](CC(C)C)NC(=O)[C@H](CCCNC(=N)N)NC(=O)[C@@H]2CCCN2C(=O)[C@H](CCCNC(=N)N)NC(=O)[C@@H]2CCC(=O)N2)C(=O)N[C@@H](Cc2c[nH]cn2)C(=O)N[C@@H](CCCCN)C(=O)NCC(=O)N2CCC[C@H]2C(=O)N1)C(=O)N1CCC[C@H]1C(=O)N[C@@H](Cc1ccccc1)C(=O)O` (some centres unmarked) [pEApeM12S, pERPRLLanHKGPLanMPF], the figure is 3 h; as for `CSCC[C@@H]1NC(=O)[C@@H]2CCCN2C(=O)CNC(=O)[C@H](CCCCN)NC(=O)[C@H](Cc2c[nH]cn2)NC(=O)C(NC(=O)[C@H](CC(C)C)NC(=O)[C@H](CCCNC(=N)N)NC(=O)[C@@H]2CCCN2C(=O)[C@H](CCCNC(=N)N)NC(=O)[C@@H]2CCC(=O)N2)CSC[C@@H](C(=O)N[C@@H](Cc2ccccc2)C(=O)O)NC1=O` (some centres unmarked) [pEApeM26S I, pERPRLLanHKGPMLanF], over 24 h.
`CSCC[C@H](NC(=O)[C@@H]1CCCN1C(=O)CNC(=O)[C@@H]1CSC(C)C(NC(=O)[C@H](CC(C)C)NC(=O)[C@H](CCCNC(=N)N)NC(=O)[C@@H]2CCCN2C(=O)[C@H](CCCNC(=N)N)NC(=O)[C@@H]2CCC(=O)N2)C(=O)N[C@@H](Cc2c[nH]cn2)C(=O)N[C@@H](CCCCN)C(=O)N1)C(=O)N1CCC[C@H]1C(=O)N[C@@H](C)C(=O)O` (some centres unmarked) [pERPRLmeLanHKmeLanGPMPA] ([pGlu]RPRL[ξAbu(3ξ-yl)]HKCGPMPA-OH; thioether 6-9) had a half-life at 0.1 mg/ml of 7 h.
Compound `CSCC[C@H](NC(=O)[C@@H]1CCCN1C(=O)CNC(=O)[C@@H]1CSC(C)C(NC(=O)[C@H](CC(C)C)NC(=O)[C@H](CCCNC(=N)N)NC(=O)[C@@H]2CCCN2C(=O)[C@H](CCCNC(=N)N)NC(=O)[C@@H]2CCC(=O)N2)C(=O)N[C@@H](Cc2c[nH]cn2)C(=O)N[C@@H](CCCCN)C(=O)N1)C(=O)N[C@H](C(=O)N[C@@H](Cc1ccccc1)C(=O)O)C(C)C` (some centres unmarked) [pERPRLmeLanHKmeLanGPMVF] ([pGlu]RPRL[ξAbu(3ξ-yl)]HKCGPMVF-OH; thioether 6-9) had a half-life at 0.1 mg/ml of 10 h. The half-life at 0.1 mg/ml values of the last two compounds are within 1.5-fold of each other.

Another series deals with T1, hAPJ (Homo sapiens, UniProt P35414).
T1 sequence (P35414 1-380): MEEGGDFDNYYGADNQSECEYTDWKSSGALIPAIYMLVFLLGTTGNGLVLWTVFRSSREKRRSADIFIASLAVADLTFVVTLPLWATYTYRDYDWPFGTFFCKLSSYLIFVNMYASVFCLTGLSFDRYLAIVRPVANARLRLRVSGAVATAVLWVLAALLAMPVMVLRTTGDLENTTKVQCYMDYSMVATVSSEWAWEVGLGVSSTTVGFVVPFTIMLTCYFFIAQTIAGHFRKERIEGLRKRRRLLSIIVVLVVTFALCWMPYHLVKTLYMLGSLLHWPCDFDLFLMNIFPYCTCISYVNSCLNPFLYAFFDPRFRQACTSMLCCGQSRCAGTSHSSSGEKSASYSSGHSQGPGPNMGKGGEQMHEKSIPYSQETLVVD
Description: beta arrestin assay (DiscoverX). It is filed as cell-based. To be noted: ratio of β-arrestin EC50 to cAMP EC50.
Description: (Me)lan apelin variants were tested with cAMP and beta arrestin assays from the company DiscoverX.
Turning to `CC(C)C[C@H](NC(=O)[C@H](CCCNC(=N)N)NC(=O)[C@@H]1CCCN1C(=O)[C@H](CCCNC(=N)N)NC(=O)[C@@H]1CCC(=O)N1)C(=O)NC1CSCC(C(=O)N2CCC[C@H]2C(=O)N[C@@H](Cc2ccccc2)C(=O)O)NC(=O)[C@@H]2CCCN2C(=O)CNC(=O)[C@H](CCCCN)NC(=O)[C@H](Cc2c[nH]cn2)NC1=O` (single isomer, unassigned) [pEApeM9S II, pERPRLLanHKGPLanPF], the “Ratio β-arrestin/cAMP” value was 200.
